Values after ≈ are worked out from the molar mass of the structure shown.
Tested on: HT-1080 cells
Assay: Lethality of commercially available CIL41/70 structural analogs
Assay type: cell-based
Conditions: Homo sapiens, tested once in technical triplicates
Procedure: 1,000 cells per 36 μl were seeded in each well in 384-well plates. Lethal compounds were dissolved, and a twofold, 12-point dilution series was prepared in DMSO. Compound solutions were further diluted with media at 1:25, and 4 μl per well of the diluted solutions was added to cell cultures immediately after cells were seeded. […] When other cell-death-modulating compounds (100 nM sodium selenite, 1 μM cerivastatin, 100 μg/mL mevalonic acid) were used in cotreatments, they were supplemented to cell culture for 24 h before lethal compounds were added to cell culture, after which cells were further incubated for 24 h at 37° C. under 5% CO2. On the day of the viability measurement, we added 10 μl per well of 50% Alamar Blue diluted in media (Life Technologies) and further incubated the cells at 37° C. for 6 h. Fluorescence intensity (excitation/emission: 530/590) was measured with a Victor 3 plate reader (PerkinElmer), and the normalized viability was calculated as VL=(IL−I0)/(IV−I0), where VL, I0, IV, and IL are the normalized viability and the raw fluorescence intensities from the wells containing media, cells treated with a vehicle (negative control), and cells with the lethal compound (L), respectively. When the effect of a chemical modulator (M) on L was calculated, we instead used the equation VL|M=(IM,L−I0)/(IM,V−I0), where VL|M, IM,L and IM,V are the normalized viability, and fluorescence intensity from cells treated with […], respectively. The viability was typically measured in biological triplicate unless otherwise specified. A representative dose-response curve, the mean and standard error of normalized viability from one replicate were plotted. HT-1080 viability after modulator treatments corresponding to FIG. 3C and FIGS. 5E-5F is available in FIGS. 19A-19C.
Their lethality was tested once in HT-1080 cells in technical triplicates.

COc1ccccc1C/C(N)=N/OC(=O)c1ccc2c(c1)OCO2 [A05]
EC50: 5.04 µg/mL (≈ 15.4 µM)

N/C(Cc1ccc(Cl)cc1Cl)=N\OC(=O)C1CCCCC1 [AS1]
EC50: > 20 µg/mL

N/C(Cc1ccc(Cl)cc1Cl)=N\OC(=O)/C=C/c1ccccc1 [AS2]
EC50: 12.3 µg/mL (≈ 35.1 µM)

CC(C)(C)c1ccc(C(=O)O/N=C(\N)Cc2cccs2)cc1 [B02]
EC50: 3.3 µg/mL (≈ 10.4 µM)

CCc1nc(C)ccc1OC/C(N)=N/OC(C)=O [CB1]
EC50: > 20 µg/mL

N/C(Cc1ccc([N+](=O)[O-])cc1)=N\OC(=O)C1CCCCC1 [CB2]
EC50: > 20 µg/mL

Cc1ccccc1OCC(=O)O/N=C(\N)Cc1ccc(Cl)cc1 [CB3]
EC50: > 20 µg/mL

N/C(Cc1ccc(Cl)cc1)=N\OC(=O)COc1ccccc1Cl [CB4]
EC50: > 20 µg/mL

COc1ccccc1C/C(N)=N/OC(=O)COc1ccc(C(C)(C)C)cc1 [CB5]
EC50: > 20 µg/mL

N/C(Cc1ccc([N+](=O)[O-])cc1)=N\OC(=O)COc1cccc2ccccc12 [CB6]
EC50: > 20 µg/mL

CC(C)(C)c1ccc(OCC(=O)O/N=C(\N)Cc2ccc([N+](=O)[O-])cc2)cc1 [CB7]
EC50: > 20 µg/mL

COc1ccc(C/C(N)=N/OC(=O)Cc2ccc(Cl)cc2)cc1OC [CB8]
EC50: > 20 µg/mL

N/C(Cc1ccc([N+](=O)[O-])cc1)=N\OC(=O)Cc1ccc(Cl)cc1 [CB9]
EC50: > 20 µg/mL

COc1ccc(C/C(N)=N/OC(=O)COc2cccc3ccccc23)cc1 [CB10]
EC50: > 20 µg/mL

COc1ccc(C/C(N)=N/OC(=O)Cc2ccc(Cl)cc2)cc1 [CB11]
EC50: > 20 µg/mL

COc1ccccc1C/C(N)=N/OC(=O)Cc1ccc(Cl)cc1 [CB12]
EC50: > 20 µg/mL

COc1ccccc1C/C(N)=N/OC(=O)COc1cccc2ccccc12 [CB13]
EC50: > 20 µg/mL

CC(C)(C)C(=O)O/N=C(\N)Cc1ccc([N+](=O)[O-])cc1 [CB14]
EC50: 14 µg/mL (≈ 50.1 µM)

COc1ccccc1C/C(N)=N/OC(=O)COc1ccc(C)cc1C [CB15]
EC50: > 20 µg/mL

Cc1ccc(OCC(=O)O/N=C(\N)Cc2ccc([N+](=O)[O-])cc2)c(C)c1 [CB16]
EC50: > 20 µg/mL

N/C(Cc1ccc(Cl)cc1)=N\OC(=O)Cc1ccc([N+](=O)[O-])cc1 [CB17]
EC50: > 20 µg/mL

N[C@H](Cc1ccc(Cl)cc1)NOC(=O)/C=C/c1ccccc1 [CB18]
EC50: 10.2 µg/mL (≈ 32.2 µM)

CC(=O)O/N=C(N)/C(=N/OC(C)=O)c1nc2ccccc2[nH]1 [CB19]
EC50: > 20 µg/mL

CC(=O)NC(=N/OC(C)=O)/C(=N/OC(C)=O)c1nc2ccccc2[nH]1 [CB20]
EC50: > 20 µg/mL

Cc1ccccc1OCC(=O)O/N=C(\N)Cc1cccs1 [CB21]
EC50: > 20 µg/mL

COc1ccccc1C/C(N)=N/OC(=O)COc1ccc(C)cc1Br [CB22]
EC50: > 20 µg/mL

Cc1ccc(OCC(=O)O/N=C(\N)Cc2cccs2)c(Br)c1 [CB23]
EC50: > 20 µg/mL

N/C(Cc1cccs1)=N\OC(=O)COc1ccccc1 [CB24]
EC50: > 20 µg/mL

Cc1ccc(OCC(=O)O/N=C(\N)Cc2ccc([N+](=O)[O-])cc2)c(Br)c1 [CB25]
EC50: > 20 µg/mL

Source: patent US10947188B2, “Small molecule ferroptosis inducers” (THE TRUSTEES OF COLUMBIA UNIVERSITY IN THE CITY OF NEW YORK, priority 2016, dated 2021)
